Data as given in patent US20090246249A1, “COATING COMPOSITIONS HAVING IMPROVED PERFORMANCE” (priority 2008, published 2009).
Square brackets hold non-standard residues; d marks the D form. Ends that are not written are not given here. * marks the point of attachment. Myristoyl = CCCCCCCCCCCCCC(=O)*; Lauroyl = CCCCCCCCCCCC(=O)*; linker = not defined here; Aun = NCCCCCCCCCCC(=O)O

What was measured:
[1] = Critical micelle concentration (methyl orange assay); format: physicochemical; conditions: pH 7 PBS, methyl orange 0.04 mM, A484
Description: Formation of a composition of the invention, and evidence of macromolecular network formation, may be monitored or quantified by any means known in the art. In this example, macromolecular formation was detected using a standard assay for determining critical micelle concentration (“CMC”). In this assay, a solution containing the composition of the invention (in a range of concentrations in pH 7 phosphate buffered saline (“PBS”)) was mixed with a solution of methyl orange (0.04 mM in PBS), and the absorbance of the mixture was measured at 484 nm (A484). CMC is the concentration at which a sharp decrease in absorbance at A484 is observed, a change in the optical properties of methyl orange when trapped in a hydrophobic phase, such as caused by self-association as a macromolecular network (Table 7, “CMC”). Also included in this assay were an assay control peptide having an amino acid sequence of SEQ ID NO:122 (Table 7, “Control”), and compound 119 (a PEGylated peptide, the peptide having an amino acid sequence of SEQ ID NO:122, as described in more detail in Example 6 herein).

[2] = Retention of binding to metal bead after incubation in 10% BSA with 10 mM guanidinium chloride (mimics human plasma); conditions: 18 hour incubation in 10% BSA + 10 mM guanidinium chloride, 37° C.; comparator SEQ ID NO:122
Source text: In this example, illustrated are unexpected beneficial properties of the composition of the invention, including but not limited to, one or more improved biophysical properties. Such one or more unexpected beneficial properties of a composition of the invention may comprise an increase in stability. An increase in stability may comprise any one or more of resistance to chemical denaturation, resistance to proteolytic degradation, improved retention to a substrate (e.g., resistance to being competed off a substrate to which it is bound, such as by proteins or other biomolecules found in body tissues). Thus, to ascertain a beneficial property of a composition of the invention, it is compared to the properties of a component of the composition-namely, a substrate-binding peptide by itself (e.g., without fatty acid covalently coupled thereto). An assay was developed that, from our direct comparisons (see, e.g., discussion of FIG. 2 below, and Example 7 herein), mimicked the effect of incubation of substrate-binding peptide with human plasma on stability of binding of a substrate-binding peptide to its substrate. The assay utilized incubations in the presence of 10% bovine serum album (BSA) with 10 mM guanidinium chloride. The high BSA concentration mimics the elevated albumin content of human plasma, and the guanidinium chloride is used to compete with any charged interactions involved in binding of the substrate-binding peptide to its substrate.
In this assay, two immunoassay plates were prepared for a “side-by-side” comparison of binding of a test sample (substrate-binding peptide or composition of the invention) to its substrate with or without the presence of 10% BSA with 10 mM guanidinium chloride. The wells of each 96-well polypropylene plate were incubated with 350 μl BSA 1% in PBS for 30 minutes at 20° C. with 500 rpm shaking. To each well was added one acetone-cleaned 3/32″ 316LVM stainless steel bead, followed by addition of dilutions in PBS of the test sample in a range of concentrations starting from 10 μM. Final volume in each well was 200 μl. The plates were incubated for 1 hour at 20° C. with 500 rpm shaking to allow for the binding to occur. The beads were washed 3 times with 250 μl PBS using a plate washer. […]
In the immunoassay for detecting binding without the presence of 10% BSA with 10 mM guanidinium chloride, added to each well was 200 μl of streptavidin AP (AP is alkaline phosphatase) at 1/200 in TBS+1% BSA. […] When color has developed, each well was read at OD405 nm in endpoint mode using a plate reader. […] When color has developed, the wells were read at OD405 nm in endpoint mode using a plate reader. […]

[3] = tested on: Staphylococcus aureus strain MZ100; assay: Tibia pin assay: coated titanium pins with vancomycin, bacterial cfu count; format: cell-based; design: key: —: “−” means no cfus; “many” means too many cfus to count, as they converge into one spot; conditions: pin coated with test sample + vancomycin
Source text: In this assay, titanium pins were used as a model for tibia pins. Briefly, sterile pins were first coated with biofunctional composition (“SEQ ID NO:124-linker-SEQ ID NO:122”) comprising a substrate-binding peptide having binding specificity for vancomycin (“SEQ ID NO:124”) linked to a substrate-binding peptide having binding specificity for metal (“SEQ ID NO:122”), or a composition of the invention formed from compound comprising the biofunctional composition covalently coupled to fatty acid. The respective coatings also include vancomycin bound thereto. The coated pins were then placed in a silicone tube containing liquid bacterial growth medium and inoculated with bacteria. After incubation, the pins were removed, and then the liquid growth medium was serially diluted. The serial dilutions were inoculated onto bacterial culture plates, the plates were incubated, and counted on the plates were bacterial colonies.
In this assay, test samples (biofunctional composition (Table 6, “BC”) or compositions 133, 134, 135, 136 139) each were used to coat a pin by incubating the test sample (in a range of from about 0.8 mM to about 1 mM) with 2.5 μl of a 10 mM vancomycin solution and PBS to a final volume of 250 μl in a microtube (3 pins per tube) for 60 minutes at room temperature with occasional agitation. In a piece of silicone tubing (1.5 mm inner diameter, 50 mm long), added is tryptic soy broth+0.2% glucose, the coated pin, and 103 colony forming units (cfu) of Staphylococcus aureus strain MZ100 in either a 20 μl inoculum, 40 μl inoculum, or 60 μl inoculum. The tubing is clamped closed, and the tubing is incubated for 37° C. for 3 hours. After 3 hours, serial dilutions (1:10, 1:100, 1:1000) were made of the culture media from each tubing, and 10 μl of the undiluted culture medium and of each dilution were spotted onto the bacterial culture plate. The bacterial culture plate was incubated overnight at 37° C., and then the cfus were counted. The results, a composite of different assay runs, are shown in Table 6 (“−” means no cfus; “many” means too many cfus to count, as they converge into one spot; “NT” means not tested).

Question: With “Ac-Y-AUD-AUD-AUD-AUD-AUD-AUD-SEQ ID NO:122 (Ac-Y[Aun][Aun][Aun][Aun][Aun][Aun]SSHRTNHKKNNPKKKNKTRGSSGK) [Compound 132]” as the substance, how does the CMC [1] read?
Answer: The CMC was 0.123 µM.

Question: Which CMC [1] does the source give for “LAU-SEQ ID NO:122 (Lauroyl-SSHRTNHKKNNPKKKNKTRGSSGK) [Compound 126]” here?
Answer: The CMC was 0.37 µM.

Question: Which results are given for “AUD-AUD-K-AUD-AUD-AUD-AUD-SEQ ID NO:122 ([Aun][Aun]K[Aun][Aun][Aun][Aun]SSHRTNHKKNNPKKKNKTRGSSGK) [Compound 123]”?
Answer: CMC [1]: 0.04 µM; retention of binding of substrate-binding peptide component to its substrate, compared to substrate-binding peptide alone (FIG. 1) [2]: significantly improved retention of binding

Question: With “MYR-SEQ ID NO:122 (Myristoyl-SSHRTNHKKNNPKKKNKTRGSSGK) [Compound 125]” as the substance, how does the CMC [1] read?
Answer: Its CMC is 0.123 µM.

Question: For “SSHRTNHKKNNPKKKNKTRGSSGK [Compound 131, AUD-AUD-AUD-AUD-AUD-AUD-AUD-AUD-SEQ ID NO:122]”, which CMC [1] is on record?
Answer: Its CMC is 0.37 µM.

Question: With “AUD-AUD-AUD-AUD-SEQ ID NO:122 ([Aun][Aun][Aun][Aun]SSHRTNHKKNNPKKKNKTRGSSGK) [Compound 122]” as the substance, how does the “retention of binding of substrate-binding peptide component to its substrate, compared to substrate-binding peptide alone (FIG. 1)” value [2] read?
Answer: The value was “significantly improved retention of binding”.

Question: Which CMC ([1]; listed as Control) does the source give for “SSHRTNHKKNNPKKKNKTRGSSGK [SEQ ID NO:122]” here?
Answer: Its CMC is >>10 μM.

Question: For “PALM-PALM-PALM-linker-SEQ ID NO:122 (SSHRTNHKKNNPKKKNKTRGSSGK; also: three palmitoyl groups and linker, attachment not placed) [Compound 129]”, which CMC [1] is on record?
Answer: Its CMC is 0.123 µM.

Question: Which CMC [1] does the source give for “MYR-linker-SEQ ID NO:122 ({Myristoyl-linker}-SSHRTNHKKNNPKKKNKTRGSSGK; reading uncertain) [Compound 127]” here?
Answer: Its CMC is 0.123 µM.

Question: For “SSHRTNHKKNNPKKKNKTRGSSGK [Compound 130, AUD-AUD-AUD-AUD-AUD-AUD-SEQ ID NO:122]”, which CMC [1] is on record?
Answer: The CMC was 0.041 µM.

Question: For “119: Fmoc-NH-(PEG)27-CO2H covalently coupled to a peptide having the amino acid sequence of SEQ ID NO:122 (PEGylated peptide) (SSHRTNHKKNNPKKKNKTRGSSGK; also: Fmoc-NH-(PEG)27-CO2H coupled, site not given here) [Compound 119, reference compound]”, which CMC [1] is on record?
Answer: Its CMC is >>10 μM.

Question: What about the “retention of binding of substrate-binding peptide component to its substrate, compared to substrate-binding peptide alone (FIG. 1)” value [2] of the same substance?
Answer: The value was “failed to promote retention of binding”.

Question: Which results are given for “SSSCLIDMYGVCHNFDGAYDSSRG [Compound 134, AUD-AUD-AUD-AUD-SEQ ID NO:124-linker-SEQ ID NO:122]”?
Answer: cfu 1:10 ([3]; 20 μl inoculum): —; cfu 1:100 ([3]; 20 μl inoculum): —; cfu 1:1000 ([3]; 20 μl inoculum): —; cfu undiluted ([3]; 20 μl inoculum, 103 colony forming units, 3 hours 37° C.): —; cfu 1:10 ([3]; 40 μl inoculum): 6 cfu; cfu 1:100 ([3]; 40 μl inoculum): 1 cfu; cfu 1:1000 ([3]; 40 μl inoculum): —; cfu undiluted ([3]; 40 μl inoculum): many; cfu 1:10 ([3]; 60 μl inoculum): 17 cfu; cfu 1:100 ([3]; 60 μl inoculum): 5 cfu; cfu 1:1000 ([3]; 60 μl inoculum): —; cfu undiluted ([3]; 60 μl inoculum): many

Question: For “[MYR]2-K-linker-SEQ ID NO:122 (SSHRTNHKKNNPKKKNKTRGSSGK; also: lysine bearing two myristoyl groups plus linker, attachment not placed) [Compound 128]”, which CMC [1] is on record?
Answer: The CMC was 0.123 µM.

Question: Which “retention of binding of substrate-binding peptide component to its substrate, compared to substrate-binding peptide alone (FIG. 1)” value [2] does the source give for “120: amino acid sequence YWAWAYAW (SEQ ID NO:129) covalently coupled to a peptide having the amino acid sequence of SEQ ID NO:122 (YWAWAYAWSSHRTNHKKNNPKKKNKTRGSSGK) [Compound 120, reference compound]” here?
Answer: The value was “failed to promote retention of binding”.
